Calls of active or inactive are those of the source.
Legend:
Troponin, cardiac muscle = Troponin, cardiac muscle (Homo sapiens, UniProt P19429+P45379+P63316); test: Fluorescence-based biochemical high throughput dose response assay for activators of the calcium sensitivity of cardiac Regulated Thin Filaments (RTF). [Related pubchem assays (depositor defined):AID493008, AID493018, AID504382, AID504383]; type: protein-complex assay
Perilipin-1/ABHD5 = biological target: T1, Perilipin-1/ABHD5 (Homo sapiens, UniProt O60240+Q8WTS1); test: Luminescence-based biochemical high throughput dose response assay for inhibitors of the interaction of the lipase co-activator protein, abhydrolase domain containing 5 (ABHD5) with perilipin-1 (PLIN1) (2K validation set). [Related pubchem assays (depositor defined):AID493027, AID493057]
T1 sequence (Q8WTS1 whole entry): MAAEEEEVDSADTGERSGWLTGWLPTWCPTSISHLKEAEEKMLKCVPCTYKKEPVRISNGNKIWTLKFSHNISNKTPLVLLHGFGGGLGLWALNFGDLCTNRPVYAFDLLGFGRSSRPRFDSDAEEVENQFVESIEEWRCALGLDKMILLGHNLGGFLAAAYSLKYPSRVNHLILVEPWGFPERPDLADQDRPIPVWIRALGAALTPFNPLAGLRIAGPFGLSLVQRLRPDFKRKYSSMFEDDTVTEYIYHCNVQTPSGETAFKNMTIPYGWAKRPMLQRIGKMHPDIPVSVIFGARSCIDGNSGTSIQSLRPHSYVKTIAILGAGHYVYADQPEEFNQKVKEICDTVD
T1 sequence (O60240 whole entry): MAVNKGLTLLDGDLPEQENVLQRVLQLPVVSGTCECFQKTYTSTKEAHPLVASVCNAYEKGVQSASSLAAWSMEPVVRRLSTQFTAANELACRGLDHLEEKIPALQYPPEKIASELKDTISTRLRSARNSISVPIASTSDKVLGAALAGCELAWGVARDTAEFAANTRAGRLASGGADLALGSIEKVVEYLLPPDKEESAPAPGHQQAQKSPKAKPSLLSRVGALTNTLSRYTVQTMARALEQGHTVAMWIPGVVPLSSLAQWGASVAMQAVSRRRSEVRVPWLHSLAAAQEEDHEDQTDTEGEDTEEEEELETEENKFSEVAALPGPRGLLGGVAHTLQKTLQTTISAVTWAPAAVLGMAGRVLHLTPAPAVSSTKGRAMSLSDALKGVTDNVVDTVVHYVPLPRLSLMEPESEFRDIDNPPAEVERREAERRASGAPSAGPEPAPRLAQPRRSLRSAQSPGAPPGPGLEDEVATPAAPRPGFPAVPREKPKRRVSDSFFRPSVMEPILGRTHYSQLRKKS

[1] = biological target: T2, 1-acylglycerol-3-phosphate O-acyltransferase ABHD5/Perilipin-5 (Homo sapiens, UniProt Q00G26+Q8WTS1); test: Luminescence-based biochemical high throughput dose response assay for inhibitors of the interaction of the lipase co-activator protein, abhydrolase domain containing 5 (ABHD5) with perilipin-5 (MLDP; PLIN5) (2K validation set). [Related pubchem assays (depositor defined):AID493035, AID493241]
T2 sequence (Q00G26 whole entry): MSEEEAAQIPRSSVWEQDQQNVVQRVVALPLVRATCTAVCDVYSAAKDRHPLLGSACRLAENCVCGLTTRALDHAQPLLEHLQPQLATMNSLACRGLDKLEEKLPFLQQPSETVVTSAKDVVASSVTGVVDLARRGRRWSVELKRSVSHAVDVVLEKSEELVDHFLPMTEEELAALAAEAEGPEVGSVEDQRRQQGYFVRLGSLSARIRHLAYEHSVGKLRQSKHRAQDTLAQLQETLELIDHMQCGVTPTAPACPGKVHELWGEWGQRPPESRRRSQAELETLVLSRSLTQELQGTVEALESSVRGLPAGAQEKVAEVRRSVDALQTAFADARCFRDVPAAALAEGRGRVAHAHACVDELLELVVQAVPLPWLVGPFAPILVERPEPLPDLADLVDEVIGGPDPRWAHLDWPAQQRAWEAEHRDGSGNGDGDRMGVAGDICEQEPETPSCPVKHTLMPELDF
T2 sequence (Q8WTS1 whole entry): T1 sequence (Q8WTS1 whole entry)

cells [2] = type: functional, cell-based
[3] = reduction of Shn3 3'UTR-driven luciferase in osteoblasts – cell-based, Clone20 osteoblasts, firefly luciferase, cherry-picked, dose response (AID 624132); type: functional;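 further: firefly luciferase luminescence from reporter carrying the Shn3 3'UTR in osteoblasts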
[4] = non-specific 3'UTR reporter inhibition in Clone20-Shn3RL – cell-based, Renilla luciferase, cherry-picked, counter-screen for Shn3 inhibitor project, dose response (AID 624133); type: functional
INS1 = test: INS-1E survival protection against cytokine death – cell-based, luminescence, retest, dose response (AID 449756); type: functional; settings: Rattus norvegicus;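 further: cell death triggered by IL-1 beta plus TNF-alpha plus IFN-gamma mixture; protective hits raise ATP signal compared with cytokine alone wells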
Exodeoxyribonuclease V = biological target: T3, Exodeoxyribonuclease V (Escherichia coli (strain K12), UniProt P04993+P07648+P08394); test: RecBCD inhibition via phage-restricted bacterial growth – absorbance, V66 E. coli, mutant T4 phage, counter-screen for AddAB inhibitor project, dose response (AID 492957); type: functional, cell-based, Escherichia coli str. K-12 substr. MG1655
T3 sequence (P04993 whole entry): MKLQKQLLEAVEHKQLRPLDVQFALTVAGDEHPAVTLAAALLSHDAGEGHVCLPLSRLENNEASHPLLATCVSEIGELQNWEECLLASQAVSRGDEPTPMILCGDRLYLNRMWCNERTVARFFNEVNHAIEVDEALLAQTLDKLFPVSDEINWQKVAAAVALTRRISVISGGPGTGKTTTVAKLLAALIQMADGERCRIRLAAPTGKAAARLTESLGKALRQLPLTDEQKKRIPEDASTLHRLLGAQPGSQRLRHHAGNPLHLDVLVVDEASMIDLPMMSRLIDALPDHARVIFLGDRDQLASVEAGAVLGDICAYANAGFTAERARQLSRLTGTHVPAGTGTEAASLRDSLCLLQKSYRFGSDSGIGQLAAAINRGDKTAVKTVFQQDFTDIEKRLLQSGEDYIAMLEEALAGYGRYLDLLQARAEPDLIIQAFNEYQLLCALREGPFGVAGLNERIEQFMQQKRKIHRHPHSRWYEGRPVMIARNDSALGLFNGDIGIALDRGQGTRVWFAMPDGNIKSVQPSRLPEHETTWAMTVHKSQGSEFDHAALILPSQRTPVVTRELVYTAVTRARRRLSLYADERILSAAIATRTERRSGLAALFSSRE
T3 sequence (P07648 whole entry): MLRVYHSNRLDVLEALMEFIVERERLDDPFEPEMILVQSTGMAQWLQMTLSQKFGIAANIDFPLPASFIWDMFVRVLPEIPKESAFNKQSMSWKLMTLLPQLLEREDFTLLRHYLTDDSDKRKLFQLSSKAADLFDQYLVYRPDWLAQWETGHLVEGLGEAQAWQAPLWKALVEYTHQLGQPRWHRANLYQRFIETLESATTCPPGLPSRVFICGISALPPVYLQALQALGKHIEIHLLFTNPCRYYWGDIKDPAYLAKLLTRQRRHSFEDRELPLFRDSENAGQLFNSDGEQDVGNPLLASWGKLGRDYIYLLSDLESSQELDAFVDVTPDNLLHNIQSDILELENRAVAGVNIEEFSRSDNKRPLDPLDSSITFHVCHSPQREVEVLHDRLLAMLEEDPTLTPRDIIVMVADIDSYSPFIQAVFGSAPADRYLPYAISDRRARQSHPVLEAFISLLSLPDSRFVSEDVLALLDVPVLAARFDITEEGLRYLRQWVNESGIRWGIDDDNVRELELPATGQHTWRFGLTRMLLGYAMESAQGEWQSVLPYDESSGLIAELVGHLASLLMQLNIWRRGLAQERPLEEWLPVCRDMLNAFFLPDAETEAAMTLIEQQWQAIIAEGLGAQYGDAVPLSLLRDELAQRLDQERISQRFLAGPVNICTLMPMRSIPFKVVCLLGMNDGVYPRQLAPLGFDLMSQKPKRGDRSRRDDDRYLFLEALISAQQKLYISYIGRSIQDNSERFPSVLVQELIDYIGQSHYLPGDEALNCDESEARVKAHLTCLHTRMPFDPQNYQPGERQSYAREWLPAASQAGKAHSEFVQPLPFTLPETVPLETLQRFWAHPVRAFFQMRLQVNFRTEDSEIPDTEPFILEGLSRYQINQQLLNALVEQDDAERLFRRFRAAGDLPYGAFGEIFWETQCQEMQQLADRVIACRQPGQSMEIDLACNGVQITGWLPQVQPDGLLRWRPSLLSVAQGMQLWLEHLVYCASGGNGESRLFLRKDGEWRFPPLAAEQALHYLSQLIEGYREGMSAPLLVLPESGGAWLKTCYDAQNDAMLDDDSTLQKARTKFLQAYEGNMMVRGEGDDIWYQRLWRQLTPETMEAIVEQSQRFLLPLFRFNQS
T3 sequence (P08394 whole entry): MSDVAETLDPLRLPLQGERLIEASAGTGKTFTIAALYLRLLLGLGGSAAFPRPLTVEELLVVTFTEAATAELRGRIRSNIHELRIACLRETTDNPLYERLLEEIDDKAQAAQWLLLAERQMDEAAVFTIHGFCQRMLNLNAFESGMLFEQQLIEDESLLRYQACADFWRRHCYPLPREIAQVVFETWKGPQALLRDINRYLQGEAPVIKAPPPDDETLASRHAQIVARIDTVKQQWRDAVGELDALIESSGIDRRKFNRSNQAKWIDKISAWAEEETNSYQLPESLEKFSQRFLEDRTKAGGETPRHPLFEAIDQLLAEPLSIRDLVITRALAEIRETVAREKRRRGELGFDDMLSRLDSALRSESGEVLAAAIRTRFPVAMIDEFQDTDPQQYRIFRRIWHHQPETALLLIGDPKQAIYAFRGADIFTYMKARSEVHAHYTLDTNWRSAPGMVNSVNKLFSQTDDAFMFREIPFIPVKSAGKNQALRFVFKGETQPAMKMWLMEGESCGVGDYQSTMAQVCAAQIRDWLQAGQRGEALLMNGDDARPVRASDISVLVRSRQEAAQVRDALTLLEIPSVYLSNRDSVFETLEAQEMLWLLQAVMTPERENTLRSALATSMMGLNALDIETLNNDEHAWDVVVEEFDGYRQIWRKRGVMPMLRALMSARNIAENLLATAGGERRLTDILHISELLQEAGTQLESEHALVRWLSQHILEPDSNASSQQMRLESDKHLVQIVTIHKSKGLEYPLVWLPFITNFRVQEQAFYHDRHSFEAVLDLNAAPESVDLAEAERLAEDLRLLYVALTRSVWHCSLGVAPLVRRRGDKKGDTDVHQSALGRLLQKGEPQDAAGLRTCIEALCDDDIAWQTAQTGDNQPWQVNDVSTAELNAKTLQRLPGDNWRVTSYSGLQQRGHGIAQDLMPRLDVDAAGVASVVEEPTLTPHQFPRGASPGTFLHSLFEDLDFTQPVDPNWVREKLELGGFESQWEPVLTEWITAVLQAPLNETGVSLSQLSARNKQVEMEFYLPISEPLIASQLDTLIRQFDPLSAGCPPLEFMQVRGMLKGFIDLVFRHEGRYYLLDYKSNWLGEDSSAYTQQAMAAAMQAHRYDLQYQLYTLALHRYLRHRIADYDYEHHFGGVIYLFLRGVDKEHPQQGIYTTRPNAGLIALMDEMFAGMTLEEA

[5] = Counterscreen for AddAB inhibitors: absorbance-based bacterial cell-based high throughput dose response assay for inhibitors of bacterial viability. [Related pubchem assays (depositor defined):AID435030, AID449728, AID449731, AID488942, AID488955, AID488956]; type: functional
cells [6] = type: functional, cell-based; remark: listed apart in the source
[7] = loss of viability in HepG2 cells – cell-based, CellTiter-Glo, cherry-picked, cytotoxicity control for Shn3 inhibitor project, dose response (AID 624134); type: functional
SUMO-activating enzyme [8] = biological target: T4, SUMO-activating enzyme (Homo sapiens, UniProt Q9UBT2); test: blockers of SAE1/SAE2–UBC9 SUMO transfer – biochemical, HTRF, uHTS, primary screen (AID 2006); type: protein-complex assay
SUMO-activating enzyme [9] = biological target: T4, SUMO-activating enzyme; test: blockers of UBC9-mediated SUMO conjugation – biochemical, AlphaScreen, SUMOylation inhibitor project, confirmation (AID 2018); type: functional
[10] = biological target: Intestinal-type alkaline phosphatase (Homo sapiens, UniProt P09923); test: Dose Response confirmation of uHTS hits from a small molecule inhibitors of human intestinal alkaline phosphatase via a luminescent assay. [Related pubchem assays (depositor defined):AID2544, AID2574]; type: functional
[11] = biological target: T5, Voltage-gated N-type calcium channel alpha-1B subunit/Amyloid beta A4 precursor protein-binding family A member 1 (Homo sapiens, UniProt Q00975+Q02410); type: protein assay
[12] = biological target: T5, Voltage-gated N-type calcium channel alpha-1B subunit/Amyloid beta A4 precursor protein-binding family A member 1; type: protein assay; remark: listed apart in the source

T5 sequence (Q00975 whole entry): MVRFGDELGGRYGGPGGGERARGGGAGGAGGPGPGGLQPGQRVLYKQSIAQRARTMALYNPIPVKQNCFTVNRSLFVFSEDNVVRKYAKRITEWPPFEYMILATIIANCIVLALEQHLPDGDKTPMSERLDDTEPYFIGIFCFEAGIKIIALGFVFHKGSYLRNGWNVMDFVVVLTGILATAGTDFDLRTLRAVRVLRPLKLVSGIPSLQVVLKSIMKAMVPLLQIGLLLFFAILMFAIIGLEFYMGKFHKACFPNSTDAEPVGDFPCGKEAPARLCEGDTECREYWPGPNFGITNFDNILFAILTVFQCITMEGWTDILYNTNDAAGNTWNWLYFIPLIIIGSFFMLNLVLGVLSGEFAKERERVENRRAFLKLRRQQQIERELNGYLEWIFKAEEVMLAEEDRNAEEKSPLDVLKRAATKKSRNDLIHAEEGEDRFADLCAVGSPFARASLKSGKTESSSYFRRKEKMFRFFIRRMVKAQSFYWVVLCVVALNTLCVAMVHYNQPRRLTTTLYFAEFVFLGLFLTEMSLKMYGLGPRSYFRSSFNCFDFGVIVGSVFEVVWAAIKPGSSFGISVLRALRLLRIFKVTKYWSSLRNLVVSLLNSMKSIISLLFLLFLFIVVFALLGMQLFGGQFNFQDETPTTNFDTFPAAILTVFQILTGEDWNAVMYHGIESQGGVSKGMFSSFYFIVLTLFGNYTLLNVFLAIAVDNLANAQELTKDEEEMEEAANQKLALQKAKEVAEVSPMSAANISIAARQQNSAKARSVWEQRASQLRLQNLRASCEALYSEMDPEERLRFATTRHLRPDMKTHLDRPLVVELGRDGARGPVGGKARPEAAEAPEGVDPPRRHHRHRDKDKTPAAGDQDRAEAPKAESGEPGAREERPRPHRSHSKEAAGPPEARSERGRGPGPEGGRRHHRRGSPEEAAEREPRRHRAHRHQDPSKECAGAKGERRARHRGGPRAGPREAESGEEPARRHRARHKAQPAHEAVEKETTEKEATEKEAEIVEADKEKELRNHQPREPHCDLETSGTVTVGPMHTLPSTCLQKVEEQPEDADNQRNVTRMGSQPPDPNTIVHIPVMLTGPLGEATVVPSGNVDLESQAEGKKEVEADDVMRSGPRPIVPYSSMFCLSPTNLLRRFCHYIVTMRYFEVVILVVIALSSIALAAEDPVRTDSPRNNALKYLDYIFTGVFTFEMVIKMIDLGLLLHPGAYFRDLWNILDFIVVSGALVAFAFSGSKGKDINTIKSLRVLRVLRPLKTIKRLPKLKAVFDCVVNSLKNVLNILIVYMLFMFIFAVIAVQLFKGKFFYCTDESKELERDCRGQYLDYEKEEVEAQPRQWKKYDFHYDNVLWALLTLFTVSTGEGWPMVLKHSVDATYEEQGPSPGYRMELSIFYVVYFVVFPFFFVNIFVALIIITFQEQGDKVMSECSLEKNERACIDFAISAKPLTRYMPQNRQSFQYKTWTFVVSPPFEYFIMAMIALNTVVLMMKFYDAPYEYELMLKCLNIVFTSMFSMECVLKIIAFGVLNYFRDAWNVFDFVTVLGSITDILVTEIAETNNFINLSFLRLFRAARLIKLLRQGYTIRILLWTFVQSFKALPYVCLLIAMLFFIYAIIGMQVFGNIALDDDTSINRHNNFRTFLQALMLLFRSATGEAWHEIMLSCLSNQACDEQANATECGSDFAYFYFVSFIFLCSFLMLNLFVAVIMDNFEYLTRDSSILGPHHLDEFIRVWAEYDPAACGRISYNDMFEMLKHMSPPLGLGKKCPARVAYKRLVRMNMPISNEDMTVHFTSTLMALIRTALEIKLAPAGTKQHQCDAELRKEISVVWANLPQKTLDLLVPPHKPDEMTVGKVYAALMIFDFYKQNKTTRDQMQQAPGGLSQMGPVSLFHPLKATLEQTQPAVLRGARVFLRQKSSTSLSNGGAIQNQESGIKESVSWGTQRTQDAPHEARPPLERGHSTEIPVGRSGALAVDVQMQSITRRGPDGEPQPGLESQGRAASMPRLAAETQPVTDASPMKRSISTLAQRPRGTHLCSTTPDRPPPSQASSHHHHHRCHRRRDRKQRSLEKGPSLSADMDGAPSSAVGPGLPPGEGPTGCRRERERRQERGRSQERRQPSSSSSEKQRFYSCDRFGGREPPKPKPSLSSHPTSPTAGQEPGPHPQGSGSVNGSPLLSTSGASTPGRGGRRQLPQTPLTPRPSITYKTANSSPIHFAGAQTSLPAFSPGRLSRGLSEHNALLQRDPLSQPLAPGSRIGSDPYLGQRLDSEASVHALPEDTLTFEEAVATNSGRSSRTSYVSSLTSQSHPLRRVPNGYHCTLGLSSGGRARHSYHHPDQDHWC
T5 sequence (Q02410 whole entry): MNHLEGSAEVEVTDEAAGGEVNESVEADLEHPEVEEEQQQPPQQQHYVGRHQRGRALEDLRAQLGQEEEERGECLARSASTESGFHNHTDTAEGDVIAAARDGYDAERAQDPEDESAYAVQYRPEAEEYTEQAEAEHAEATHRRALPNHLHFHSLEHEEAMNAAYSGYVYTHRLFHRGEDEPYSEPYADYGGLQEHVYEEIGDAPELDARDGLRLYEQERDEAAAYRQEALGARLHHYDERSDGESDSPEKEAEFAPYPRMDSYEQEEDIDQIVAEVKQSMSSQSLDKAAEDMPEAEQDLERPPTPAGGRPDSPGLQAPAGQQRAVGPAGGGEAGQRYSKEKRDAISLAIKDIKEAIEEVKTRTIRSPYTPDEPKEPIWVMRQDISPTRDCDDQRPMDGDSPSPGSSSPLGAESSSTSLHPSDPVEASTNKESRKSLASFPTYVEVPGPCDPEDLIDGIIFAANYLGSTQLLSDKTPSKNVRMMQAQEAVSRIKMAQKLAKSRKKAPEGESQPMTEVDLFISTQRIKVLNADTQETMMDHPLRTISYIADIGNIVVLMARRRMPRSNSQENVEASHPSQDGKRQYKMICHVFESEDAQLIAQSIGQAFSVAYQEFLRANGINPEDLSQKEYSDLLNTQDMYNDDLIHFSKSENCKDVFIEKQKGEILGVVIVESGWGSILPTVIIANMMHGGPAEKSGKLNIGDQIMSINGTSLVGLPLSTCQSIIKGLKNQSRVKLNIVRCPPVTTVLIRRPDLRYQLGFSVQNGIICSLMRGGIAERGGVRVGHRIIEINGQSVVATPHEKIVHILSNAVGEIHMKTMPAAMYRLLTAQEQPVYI
Chain of Intestinal-type alkaline phosphatase (P09923 whole entry): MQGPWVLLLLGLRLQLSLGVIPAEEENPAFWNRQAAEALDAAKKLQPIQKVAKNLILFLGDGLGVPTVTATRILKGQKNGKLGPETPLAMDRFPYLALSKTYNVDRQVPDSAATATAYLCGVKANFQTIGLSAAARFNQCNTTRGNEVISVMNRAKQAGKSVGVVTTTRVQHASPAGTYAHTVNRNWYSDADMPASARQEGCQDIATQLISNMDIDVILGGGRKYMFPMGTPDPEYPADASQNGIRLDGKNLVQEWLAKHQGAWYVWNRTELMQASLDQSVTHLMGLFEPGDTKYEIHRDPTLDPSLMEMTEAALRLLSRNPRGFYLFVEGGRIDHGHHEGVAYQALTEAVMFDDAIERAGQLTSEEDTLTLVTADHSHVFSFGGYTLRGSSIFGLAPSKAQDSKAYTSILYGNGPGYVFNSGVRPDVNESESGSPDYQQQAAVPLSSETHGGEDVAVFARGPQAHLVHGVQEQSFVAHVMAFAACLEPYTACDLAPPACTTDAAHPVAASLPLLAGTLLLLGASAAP
T4 sequence (Q9UBE0 whole entry): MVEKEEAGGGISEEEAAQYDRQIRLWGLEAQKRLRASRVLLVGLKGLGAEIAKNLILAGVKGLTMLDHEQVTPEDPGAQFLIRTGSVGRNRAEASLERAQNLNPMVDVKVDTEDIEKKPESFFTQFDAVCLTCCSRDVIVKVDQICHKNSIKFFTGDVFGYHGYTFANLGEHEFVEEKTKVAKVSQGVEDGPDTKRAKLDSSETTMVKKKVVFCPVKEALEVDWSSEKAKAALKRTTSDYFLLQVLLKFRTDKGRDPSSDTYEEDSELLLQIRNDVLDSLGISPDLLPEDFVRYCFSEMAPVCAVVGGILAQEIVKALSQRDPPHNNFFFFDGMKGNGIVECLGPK
T4 sequence (Q9UBT2 whole entry): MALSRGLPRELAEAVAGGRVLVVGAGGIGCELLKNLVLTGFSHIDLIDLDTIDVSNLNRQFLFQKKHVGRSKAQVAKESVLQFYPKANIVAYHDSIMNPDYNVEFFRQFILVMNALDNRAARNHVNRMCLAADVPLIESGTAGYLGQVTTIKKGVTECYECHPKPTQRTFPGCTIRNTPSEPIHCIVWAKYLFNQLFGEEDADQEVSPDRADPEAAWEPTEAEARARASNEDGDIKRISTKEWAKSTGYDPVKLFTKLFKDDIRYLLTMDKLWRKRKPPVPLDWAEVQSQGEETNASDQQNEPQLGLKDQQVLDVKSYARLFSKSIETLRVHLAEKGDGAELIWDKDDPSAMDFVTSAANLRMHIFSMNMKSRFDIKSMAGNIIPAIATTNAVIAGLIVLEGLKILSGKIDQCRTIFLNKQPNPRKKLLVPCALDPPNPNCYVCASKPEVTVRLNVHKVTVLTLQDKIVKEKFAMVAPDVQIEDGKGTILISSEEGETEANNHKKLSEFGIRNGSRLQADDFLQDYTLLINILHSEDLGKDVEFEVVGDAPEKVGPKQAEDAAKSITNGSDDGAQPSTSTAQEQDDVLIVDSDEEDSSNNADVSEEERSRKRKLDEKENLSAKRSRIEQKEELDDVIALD

With `COc1ccc2[nH]c(-c3ccccn3)nc2c1` the EC50 (Troponin, cardiac muscle) was > 71.5 µM (inactive).

With `CSCCC(NC(=O)OC(C)(C)C)C(=O)Oc1ccc2c(=O)c(-c3ccc4c(c3)OCCO4)coc2c1` (configuration not stated) the IC50 (Perilipin-1/ABHD5) was 2.99 µM (active) and the IC50 [1] was 3.94 µM (active).

With `CCCCC(=O)NC(c1ccccc1Cl)c1ccc2cccnc2c1O` (configuration not stated) the EC50 (cells [2]) was > 350 µM (not active), the AC50 [3] was 1.12 µM (active) and the AC50 [4] was 0.856 µM (active). The AC50 (INS1) was 0.645 µM (active), the IC50 (Exodeoxyribonuclease V) was > 119 µM (inactive) and the IC50 [5] was > 119 µM (inactive). The EC50 (cells [6]) was 8.93 µM (active), the AC50 [7] was 3.56 µM (active) and the IC50 (SUMO-activating enzyme [8]) was > 100 µM (inactive). The IC50 (SUMO-activating enzyme [9]) was 9.96 µM (active).

With `Cc1cc(C)n(C(=O)C23CC4CC(CC(C4)C2)C3)n1` the IC50 [10] was > 100 µM (inactive).

In the case of `O=C(O)COn1c(-c2ccc(Cl)cc2)nc2ccc(Cl)cc21`, the IC50 [10] is reported as > 100 µM (inactive).

In the case of `O=C(CCN1C(=O)/C(=C/c2ccccc2Cl)SC1=S)NC1CCS(=O)(=O)C1` (configuration not stated), the IC50 [11] is reported as > 50 µM (inactive) and the IC50 [12] is reported as 5.22 µM (active).

With `COc1cc(N2CCCC2)c(OC)cc1/C=C1/NC(=S)NC1=O` the EC50 (Troponin, cardiac muscle) was 1.14 µM (active).

For `COc1ccc(N2C(=O)NC(=O)/C(=C\c3c[nH]c4ccccc34)C2=O)cc1`, the IC50 [11] was > 50 µM (inactive) and the IC50 [12] was 23.7 µM (active).

In the case of `COc1ccc(/C=C2\CC/C(=C\c3ccc(OC)c(OC)c3)C2=O)cc1OC`, the IC50 (Perilipin-1/ABHD5) is reported as 5.6 µM (active) and the IC50 [1] is reported as 5.24 µM (active).
